Data published in the supplement of paper PMC10307832.

What was measured:
Assay in all cases: relative viability (nuclei count vs DMSO), 5 days (fraction); higher = more cells survive
Crenolanib + Trametinib = compound: CC1(COc2ccc3c(c2)ncn3-c2ccc3cccc(N4CCC(N)CC4)c3n2)COC1 [Crenolanib] + CC(=O)Nc1cccc(-n2c(=O)n(C3CC3)c(=O)c3c(Nc4ccc(I)cc4F)n(C)c(=O)c(C)c32)c1 [Trametinib] (partner 0.02 µM)
In short: (§1)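 Lung cancer cell lines in 1536-well plates were dosed by pin tool the day after seeding, either with one drug alone or with a fixed anchor-drug dose plus five library-drug doses (not always all listed) in √10 steps. After 5 days, cells were fixed and their nuclei stained in one step (final 0.05% Triton X-100, 1% formaldehyde, 1 ug/ml Hoechst), then counted on 4× images. Relative viability is the nuclei count in treated wells divided by that in vehicle wells. Values are medians of duplicate plates.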

Crenolanib + Crizotinib = compound: CC1(COc2ccc3c(c2)ncn3-c2ccc3cccc(N4CCC(N)CC4)c3n2)COC1 [Crenolanib] + C[C@@H](Oc1cc(-c2cnn(C3CCNCC3)c2)cnc1N)c1c(Cl)ccc(F)c1Cl [Crizotinib] (partner 1 µM)
In short: as §1

Tivantinib + Pemetrexed = compound: O=C1NC(=O)[C@@H](c2cn3c4c(cccc24)CCC3)[C@@H]1c1c[nH]c2ccccc12 [Tivantinib] + Nc1nc2[nH]cc(CCc3ccc(C(=O)N[C@@H](CCC(=O)O)C(=O)O)cc3)c2c(=O)[nH]1 [Pemetrexed] (partner 0.2 µM)
In short: as §1

Tivantinib + Bortezomib = compound: O=C1NC(=O)[C@@H](c2cn3c4c(cccc24)CCC3)[C@@H]1c1c[nH]c2ccccc12 [Tivantinib] + CC(C)C[C@H](NC(=O)[C@H](Cc1ccccc1)NC(=O)c1cnccn1)B(O)O [Bortezomib] (partner 0.002 µM)
In short: as §1

UMC-11
relative viability (Crenolanib + Trametinib; first compound 0.01 µM): 0.74
relative viability (Crenolanib + Trametinib; first compound 0.03162 µM): 0.676
relative viability (Crenolanib + Trametinib; first compound 0.1 µM): 0.683
relative viability (Crenolanib + Trametinib; first compound 0.3162 µM): 0.68
relative viability (Crenolanib + Trametinib; first compound 1 µM): 0.684
relative viability (Crenolanib + Crizotinib; first compound 0.01 µM): 0.624
relative viability (Crenolanib + Crizotinib; first compound 0.03162 µM): 0.568
relative viability (Crenolanib + Crizotinib; first compound 0.1 µM): 0.674
relative viability (Crenolanib + Crizotinib; first compound 0.3162 µM): 0.804
relative viability (Crenolanib + Crizotinib; first compound 1 µM): 0.606
relative viability (Tivantinib + Pemetrexed; first compound 0.01 µM): 0.772
relative viability (Tivantinib + Pemetrexed; first compound 0.03162 µM): 0.759
relative viability (Tivantinib + Pemetrexed; first compound 0.1 µM): 0.75
relative viability (Tivantinib + Pemetrexed; first compound 0.3162 µM): 0.803
relative viability (Tivantinib + Bortezomib; first compound 0.01 µM): 0.678
relative viability (Tivantinib + Bortezomib; first compound 0.03162 µM): 0.734
relative viability (Tivantinib + Bortezomib; first compound 0.1 µM): 0.551
relative viability (Tivantinib + Bortezomib; first compound 0.3162 µM): 0.969
